Entries after “also recorded” stand apart in the source; their conditions may differ.
Columns and labels:
[1] = tested on: hiPSC-derived neurons
[2] = target: BoNT/A (Clostridium botulinum, UniProt P0DPI1); type: cell-based, C. botulinum
Chain of BoNT/A (P0DPI1 2-448 limits assumed): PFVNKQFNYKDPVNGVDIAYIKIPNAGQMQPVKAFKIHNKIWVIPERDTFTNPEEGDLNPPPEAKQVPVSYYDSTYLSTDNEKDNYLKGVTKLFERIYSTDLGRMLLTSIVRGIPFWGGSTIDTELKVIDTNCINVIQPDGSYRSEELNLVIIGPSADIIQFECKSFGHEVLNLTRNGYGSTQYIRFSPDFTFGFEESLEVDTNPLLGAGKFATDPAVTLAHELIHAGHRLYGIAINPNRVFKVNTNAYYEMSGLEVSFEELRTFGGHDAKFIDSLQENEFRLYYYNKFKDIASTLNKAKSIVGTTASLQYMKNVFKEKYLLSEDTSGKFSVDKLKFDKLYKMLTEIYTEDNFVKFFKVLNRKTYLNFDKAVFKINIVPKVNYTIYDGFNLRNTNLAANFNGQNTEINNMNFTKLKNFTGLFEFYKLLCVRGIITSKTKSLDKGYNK

SMILES	Cytotoxicity (result in words) [1]	Inhibition [2]	Inhibition / protection of SNAP-25 from the neurotoxin (result in words) [2]	Cytotoxicity ([1]; at 150 µM)
O=C(CC(CCO)c1ccc(Cl)cc1Cl)NOC(=O)NCc1ccccc1 (centres unmarked) [compound 2, N-((benzylcarbamoyl)oxy)-3-(2,4-dichlorophenyl)-5-hydroxypentanamide]	did not show cytotoxicity	no inhibition; also recorded: partial inhibition at 300 µM	ineffective inhibitors	
O=C(/C=C/c1ccc(Cl)cc1Cl)NOC(=O)NCc1ccccc1 [compound 1, (E)-N-((benzylcarbamoyl)oxy)-3-(2,4-dichlorophenyl)acrylamide]			ineffective inhibitors	cytotoxic at 150 µM ^a

Reference: article PMC3919520 (Bioorganic & medicinal chemistry, 2013)
